{
  "source": "ChEMBL document CHEMBL5120857",
  "about": "“Rational design, synthesis and biological evaluation of dual PARP-1/2 and TNKS1/2 inhibitors for cancer therapy” (Eur J Med Chem, 2022)",
  "key": {"[1]": {"system": "HCT-116", "experiment": "Inhibition of PARP in human HCT-116 cells assessed as decrease in pADPr levels at 10 uM by Western blot analysis", "type": "cell-based"}, "[2]": {"molecular_target": "T1, Protein mono-ADP-ribosyltransferase PARP12 (Homo sapiens, UniProt Q9H0J9)", "T1 sequence (Q9H0J9 whole entry)": "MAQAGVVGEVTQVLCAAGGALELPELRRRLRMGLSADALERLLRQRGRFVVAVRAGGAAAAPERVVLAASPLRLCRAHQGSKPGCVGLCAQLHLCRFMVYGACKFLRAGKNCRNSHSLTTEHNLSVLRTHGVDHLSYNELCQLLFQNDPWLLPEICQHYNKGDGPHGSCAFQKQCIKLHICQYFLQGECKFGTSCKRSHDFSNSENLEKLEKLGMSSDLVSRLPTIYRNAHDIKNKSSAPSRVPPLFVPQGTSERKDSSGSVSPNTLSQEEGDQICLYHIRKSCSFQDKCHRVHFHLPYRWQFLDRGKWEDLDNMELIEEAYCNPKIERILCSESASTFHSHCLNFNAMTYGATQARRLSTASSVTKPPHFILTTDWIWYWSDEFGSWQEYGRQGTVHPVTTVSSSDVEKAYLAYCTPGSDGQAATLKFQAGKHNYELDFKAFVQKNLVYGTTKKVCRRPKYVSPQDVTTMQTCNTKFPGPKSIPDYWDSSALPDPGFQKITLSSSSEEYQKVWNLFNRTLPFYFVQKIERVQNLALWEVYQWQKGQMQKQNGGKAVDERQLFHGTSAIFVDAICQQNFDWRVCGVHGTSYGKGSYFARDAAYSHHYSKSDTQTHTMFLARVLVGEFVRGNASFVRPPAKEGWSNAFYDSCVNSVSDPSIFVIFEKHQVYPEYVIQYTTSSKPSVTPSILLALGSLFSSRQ", "experiment": "Inhibition of PARP-12 (unknown origin)"}, "[3]": {"experiment": "Half-life in Sprague-Dawley rat at 10 mg/kg, po or 1 mg/kg, iv", "type": "ADME, organism-based", "settings": "in vivo"}, "[4]": {"molecular_target": "T2, Poly [ADP-ribose] polymerase tankyrase-2 (Homo sapiens) (UniProt Q9H2K2)", "T2 sequence (whole entry)": "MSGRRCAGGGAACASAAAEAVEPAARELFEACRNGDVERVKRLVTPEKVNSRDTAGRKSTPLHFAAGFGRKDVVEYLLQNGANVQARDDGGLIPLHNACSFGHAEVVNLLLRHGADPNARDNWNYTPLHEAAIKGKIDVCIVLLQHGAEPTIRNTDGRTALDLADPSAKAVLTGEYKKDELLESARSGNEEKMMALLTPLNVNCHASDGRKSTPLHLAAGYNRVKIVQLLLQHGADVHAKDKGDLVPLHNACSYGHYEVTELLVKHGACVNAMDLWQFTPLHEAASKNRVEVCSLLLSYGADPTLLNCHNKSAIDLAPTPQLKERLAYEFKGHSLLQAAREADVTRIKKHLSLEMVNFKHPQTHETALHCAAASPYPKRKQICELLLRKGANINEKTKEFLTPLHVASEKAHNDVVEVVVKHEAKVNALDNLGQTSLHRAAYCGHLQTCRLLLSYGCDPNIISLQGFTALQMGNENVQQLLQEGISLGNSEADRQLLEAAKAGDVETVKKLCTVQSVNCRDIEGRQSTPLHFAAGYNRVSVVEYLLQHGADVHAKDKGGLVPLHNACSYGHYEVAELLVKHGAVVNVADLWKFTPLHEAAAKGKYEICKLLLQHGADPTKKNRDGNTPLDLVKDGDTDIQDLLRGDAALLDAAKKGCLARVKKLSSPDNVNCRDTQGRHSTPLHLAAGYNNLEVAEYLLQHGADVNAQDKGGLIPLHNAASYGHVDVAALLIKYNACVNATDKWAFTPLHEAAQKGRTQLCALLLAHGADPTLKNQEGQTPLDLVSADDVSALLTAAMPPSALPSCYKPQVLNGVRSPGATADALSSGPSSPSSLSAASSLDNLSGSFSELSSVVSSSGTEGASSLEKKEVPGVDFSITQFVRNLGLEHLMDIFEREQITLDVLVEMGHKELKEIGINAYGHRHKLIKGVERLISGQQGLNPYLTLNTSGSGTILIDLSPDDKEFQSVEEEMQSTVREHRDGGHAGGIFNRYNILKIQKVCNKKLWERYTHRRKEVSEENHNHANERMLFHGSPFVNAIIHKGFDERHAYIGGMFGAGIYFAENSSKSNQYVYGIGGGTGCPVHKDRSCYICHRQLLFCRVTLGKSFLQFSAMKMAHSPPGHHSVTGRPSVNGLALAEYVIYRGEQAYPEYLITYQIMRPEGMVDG", "settings": "dose 10.0 nM, time 1.0 hrs"}, "[5]": {"experiment": "Clearance in Sprague-Dawley rat at 10 mg/kg, po or 1 mg/kg, iv", "type": "ADME, organism-based", "settings": "in vivo"}, "[6]": {"system": "HCT-116", "experiment": "Inhibition of Wnt/beta-Catenin signaling in human HCT-116 cells assessed as decrease in active beta-catenin levels at 10 uM by Western blot analysis", "type": "cell-based"}, "[7]": {"system": "MDA-MB-231", "experiment": "Antiproliferative activity against human MDA-MB-231 cells assessed as inhibition of cell growth incubated for 7 days by MTT assay", "type": "functional, cell-based", "settings": "MDA-MB-231, 168 h"}, "[8]": {"system": "HCT-116", "experiment": "Induction of apoptosis in human HCT-116 cells assessed as late apoptotic cells at 5 uM incubated for 3 days by annexinV-FITC/propidium iodide staining based flow cytometry (reference value: 8.71 %)", "type": "functional", "settings": "time 3 day"}, "[9]": {"system": "HCT-116", "experiment": "Antiproliferative activity against human HCT-116 cells assessed as inhibition of cell growth incubated for 7 days by MTT assay", "type": "functional, cell-based", "settings": "HCT-116, 168 h"}, "[10]": {"system": "HCT-116", "experiment": "Induction of apoptosis in human HCT-116 cells assessed as early apoptotic cells at 5 uM incubated for 3 days by annexinV-FITC/propidium iodide staining based flow cytometry (reference value: 7.67 %)", "type": "functional", "settings": "time 3 day"}, "[11]": {"experiment": "Toxicity in […] assessed as morphological changes in jejunum at 500 mg/kg, ip by H&E staining based histopathological analysis", "type": "organism-based", "settings": "in vivo"}, "[12]": {"system": "HCT-116", "experiment": "Induction of apoptosis in human HCT-116 cells assessed as early apoptotic cells at 1 uM incubated for 3 days by annexinV-FITC/propidium iodide staining based flow cytometry (reference value: 7.67 %)", "type": "functional", "settings": "time 3 day"}, "[13]": {"experiment": "Toxicity in BALB/c nude mouse xenografted with human HCT116 cells assessed as side effects at 25 to 100 mg/kg, ip administered once daily for 28 days", "type": "organism-based, HCT-116", "settings": "in vivo, 672 h, dose 25-100 mg/kg, time 28 day"}, "[14]": {"system": "HCT-116", "experiment": "Induction of cell cycle arrest in human HCT-116 cells assessed as S phase cells at 1 uM incubated for 3 days by propidium iodide staining based flow cytometry (reference value: 11.26 %)", "type": "functional", "settings": "time 3 day"}, "[15]": {"experiment": "Toxicity in […] assessed as morphological changes in colon at 500 mg/kg, ip by H&E staining based histopathological analysis", "type": "organism-based", "settings": "in vivo"}, "[16]": {"experiment": "Toxicity in […] assessed as morphological changes in ileum at 500 mg/kg, ip by H&E staining based histopathological analysis", "type": "organism-based", "settings": "in vivo"}},
  "note": "Calls of active or inactive are those of the source. The rule behind the calls is not given here.",
  "data": [
    {"molecule": "COc1ccc(NC(=O)c2ccc(NC(=O)N3CCN(C(=O)c4cc(Cc5n[nH]c(=O)c6ccccc56)ccc4F)CC3)cc2)cc1", "values": [
      {"measurement": "inhibition", "setting": "[1]", "value": "Active"},
      {"measurement": "IC50", "setting": "[2]", "value": 371, "unit": "nM"},
      {"measurement": "half-life", "setting": "[3]", "value": 1.73, "unit": "h"},
      {"measurement": "inhibition", "setting": "[4]", "value": 68.5, "unit": "%"},
      {"measurement": "CL", "setting": "[5]", "value": 90.67, "unit": "mL/min/kg"},
      {"measurement": "inhibition", "setting": "[6]", "value": "Active"},
      {"measurement": "IC50", "setting": "[7]", "value": 870, "unit": "nM"},
      {"measurement": "Activity", "setting": "[8]", "value": 39.5, "unit": "%"},
      {"measurement": "IC50", "setting": "[9]", "value": 750, "unit": "nM"},
      {"measurement": "Activity", "setting": "[10]", "value": 6.61, "unit": "%"},
      {"measurement": "Activity", "setting": "[11]", "value": "Non-Toxic"},
      {"measurement": "Activity", "setting": "[12]", "value": 6.86, "unit": "%"},
      {"measurement": "Activity", "setting": "[13]", "value": "Non-Toxic"},
      {"measurement": "Activity", "setting": "[14]", "value": 9.31, "unit": "%"},
      {"measurement": "Activity", "setting": "[15]", "value": "Non-Toxic"},
      {"measurement": "Activity", "setting": "[16]", "value": "Non-Toxic"}
    ]}
  ]
}
